ChEMBL document CHEMBL3603774, “Novel 5-functionalized-pyrazoles: Synthesis, characterization and pharmacological screening” (Bioorg Med Chem Lett, 2015)
In brackets after ≈: the same amount, converted by molar mass.

Key:
Aspergillus niger [1] = assay: Antifungal activity against Aspergillus niger MTCC 281 at 50 ug/ml after 24 hrs by disc diffusion method; format: functional; conditions: MTCC 281, 24 h, read-out: IZ
Bacillus cereus [2] = assay: Antibacterial activity against Bacillus cereus MTCC 8372 assessed as concentration required to completely destroy test microorganisms after 24 hrs; format: functional; conditions: MTCC 8372, 24 h
Escherichia coli [3] = assay: Antibacterial activity against Escherichia coli MTCC 724 at 100 ug/ml after 24 hrs by disc diffusion method; format: functional; conditions: MTCC 724, 24 h, read-out: IZ
Klebsiella pneumoniae [4] = assay: Antibacterial activity against Klebsiella pneumoniae MTCC 3384 at 50 ug/ml after 24 hrs by disc diffusion method; format: functional; conditions: MTCC 3384, 24 h, read-out: IZ
Alpha amylase = molecular target: T1, Alpha amylase (Homo sapiens, UniProt P0DUB6); assay: Inhibition of alpha-amylase (unknown origin) using starch as substrate after 30 mins by spectrophotometer analysis
T1 sequence (P0DUB6 whole entry): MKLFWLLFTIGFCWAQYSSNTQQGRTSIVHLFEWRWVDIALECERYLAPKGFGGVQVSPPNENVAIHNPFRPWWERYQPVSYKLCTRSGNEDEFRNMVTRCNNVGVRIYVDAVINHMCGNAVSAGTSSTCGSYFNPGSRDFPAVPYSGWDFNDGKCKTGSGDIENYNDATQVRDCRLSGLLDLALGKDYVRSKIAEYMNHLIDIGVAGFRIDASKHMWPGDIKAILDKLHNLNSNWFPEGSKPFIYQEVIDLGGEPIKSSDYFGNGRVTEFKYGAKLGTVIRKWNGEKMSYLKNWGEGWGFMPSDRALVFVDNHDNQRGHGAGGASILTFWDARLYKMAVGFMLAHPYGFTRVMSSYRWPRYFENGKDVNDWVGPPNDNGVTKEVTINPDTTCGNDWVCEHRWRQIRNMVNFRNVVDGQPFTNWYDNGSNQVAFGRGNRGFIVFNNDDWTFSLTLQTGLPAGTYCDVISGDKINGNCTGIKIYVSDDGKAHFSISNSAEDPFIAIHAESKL

Aspergillus niger [5] = assay: Antifungal activity against Aspergillus niger MTCC 281 at 100 ug/ml after 24 hrs by disc diffusion method; format: functional; conditions: MTCC 281, 24 h, read-out: IZ
Staphylococcus aureus [6] = assay: Antibacterial activity against Staphylococcus aureus MTCC 96 at 50 ug/ml after 24 hrs by disc diffusion method; format: functional; conditions: MTCC 96, 24 h, read-out: IZ
Aspergillus niger [7] = assay: Antifungal activity against Aspergillus niger MTCC 281 assessed as concentration required to completely destroy test microorganisms after 24 hrs; format: functional; conditions: MTCC 281, 24 h
[8] = Inhibition of alpha-glucosidase (unknown origin) using p-nitrophenol glycoside as substrate after 30 mins by colorimetric analysis; design: species or system Homo sapiens
Aspergillus niger [9] = assay: Antifungal activity against Aspergillus niger MTCC 281 after 48 hrs by microdilution method; format: functional; conditions: MTCC 281, 48 h
Escherichia coli [10] = assay: Antibacterial activity against Escherichia coli MTCC 724 at 50 ug/ml after 24 hrs by disc diffusion method; format: functional; conditions: MTCC 724, 24 h, read-out: IZ
Escherichia coli [11] = assay: Antibacterial activity against Escherichia coli MTCC 724 assessed as concentration required to completely destroy test microorganisms after 24 hrs; format: functional; conditions: MTCC 724, 24 h
Staphylococcus aureus [12] = assay: Antibacterial activity against Staphylococcus aureus MTCC 96 at 100 ug/ml after 24 hrs by disc diffusion method; format: functional; conditions: MTCC 96, 24 h, read-out: IZ
Aspergillus flavus [13] = assay: Antifungal activity against Aspergillus flavus MTCC 873 assessed as concentration required to completely destroy test microorganisms after 24 hrs; format: functional; conditions: MTCC 873, 24 h
Klebsiella pneumoniae [14] = assay: Antibacterial activity against Klebsiella pneumoniae MTCC 3384 assessed as concentration required to completely destroy test microorganisms after 24 hrs; format: functional; conditions: MTCC 3384, 24 h
Aspergillus flavus [15] = assay: Antifungal activity against Aspergillus flavus MTCC 873 at 50 ug/ml after 24 hrs by disc diffusion method; format: functional; conditions: MTCC 873, 24 h, read-out: IZ
Bacillus cereus [16] = assay: Antibacterial activity against Bacillus cereus MTCC 8372 at 100 ug/ml after 24 hrs by disc diffusion method; format: functional; conditions: MTCC 8372, 24 h, read-out: IZ
Klebsiella pneumoniae [17] = assay: Antibacterial activity against Klebsiella pneumoniae MTCC 3384 at 100 ug/ml after 24 hrs by disc diffusion method; format: functional; conditions: MTCC 3384, 24 h, read-out: IZ
Bacillus cereus [18] = assay: Antibacterial activity against Bacillus cereus MTCC 8372 at 50 ug/ml after 24 hrs by disc diffusion method; format: functional; conditions: MTCC 8372, 24 h, read-out: IZ
Klebsiella pneumoniae [19] = assay: Antibacterial activity against Klebsiella pneumoniae MTCC 3384 after 24 hrs by microdilution method; format: functional; conditions: MTCC 3384, 24 h
Escherichia coli [20] = assay: Antibacterial activity against Escherichia coli MTCC 724 after 24 hrs by microdilution method; format: functional; conditions: MTCC 724, 24 h
Staphylococcus aureus [21] = assay: Antibacterial activity against Staphylococcus aureus MTCC 96 assessed as concentration required to completely destroy test microorganisms after 24 hrs; format: functional; conditions: MTCC 96, 24 h
Staphylococcus aureus [22] = assay: Antibacterial activity against Staphylococcus aureus MTCC 96 after 24 hrs by microdilution method; format: functional; conditions: MTCC 96, 24 h
Aspergillus flavus [23] = assay: Antifungal activity against Aspergillus flavus MTCC 873 after 48 hrs by microdilution method; format: functional; conditions: MTCC 873, 48 h
Aspergillus flavus [24] = assay: Antifungal activity against Aspergillus flavus MTCC 873 at 100 ug/ml after 24 hrs by disc diffusion method; format: functional; conditions: MTCC 873, 24 h, read-out: IZ
Bacillus cereus [25] = assay: Antibacterial activity against Bacillus cereus MTCC 8372 after 24 hrs by microdilution method; format: functional; conditions: MTCC 8372, 24 h

| SMILES | zone of inhibition at 50 µg/mL (Aspergillus niger [1]) [mm] | MBC (Bacillus cereus [2]) [µg/mL] | zone of inhibition at 100 µg/mL (Escherichia coli [3]) [mm] | zone of inhibition at 50 µg/mL (Klebsiella pneumoniae [4]) [mm] | IC50 (Alpha amylase) [µg/mL] | zone of inhibition at 100 µg/mL (Aspergillus niger [5]) [mm] | zone of inhibition at 50 µg/mL (Staphylococcus aureus [6]) [mm] | MFC (Aspergillus niger [7]) [µg/mL] | IC50 [8] [µg/mL] | MIC (Aspergillus niger [9]) [µg/mL] | zone of inhibition at 50 µg/mL (Escherichia coli [10]) [mm] | MBC (Escherichia coli [11]) [µg/mL] | zone of inhibition at 100 µg/mL (Staphylococcus aureus [12]) [mm] | MFC (Aspergillus flavus [13]) [µg/mL] | MBC (Klebsiella pneumoniae [14]) [µg/mL] | zone of inhibition at 50 µg/mL (Aspergillus flavus [15]) [mm] | zone of inhibition at 100 µg/mL (Bacillus cereus [16]) [mm] | zone of inhibition at 100 µg/mL (Klebsiella pneumoniae [17]) [mm] | zone of inhibition at 50 µg/mL (Bacillus cereus [18]) [mm] | MIC (Klebsiella pneumoniae [19]) [µg/mL] | further results |
| --- | --- | --- | --- | --- | --- | --- | --- | --- | --- | --- | --- | --- | --- | --- | --- | --- | --- | --- | --- | --- | --- |
| CCOC(=O)c1c(-c2ccccc2)nn(-c2ccccc2)c1Cn1c(S)nc2ccc(OC(F)F)cc21 | 12 | 130 (≈ 250 µM) | 33 | 16 | 10 (≈ 19.2 µM) | 22 | 12 | 145 (≈ 279 µM) | 15 (≈ 28.8 µM) | 25 (≈ 48 µM) | 20 | 135 (≈ 259 µM) | 21 | 155 (≈ 298 µM) | 130 (≈ 250 µM) | 18 | 26 | 28 | 11 | 15 (≈ 28.8 µM) | MIC (Escherichia coli [20]): 15 µg/mL (≈ 28.8 µM); MBC (Staphylococcus aureus [21]): 120 µg/mL (≈ 231 µM); MIC (Staphylococcus aureus [22]): 20 µg/mL (≈ 38.4 µM); MIC (Aspergillus flavus [23]): 30 µg/mL (≈ 57.6 µM); zone of inhibition at 100 µg/mL (Aspergillus flavus [24]): 20 mm; MIC (Bacillus cereus [25]): 10 µg/mL (≈ 19.2 µM) |
| CCOC(=O)c1c(-c2ccccc2)nn(-c2ccccc2)c1COCc1ccccc1 | 12 | 255 (≈ 618 µM) | 6 | 3 | 45 (≈ 109 µM) | 8 | 2 | 265 (≈ 642 µM) | 45 (≈ 109 µM) | 45 (≈ 109 µM) | 4 | 210 (≈ 509 µM) | 6 | 270 (≈ 655 µM) | 230 (≈ 558 µM) | 8 | 8 | 6 | 2 | 45 (≈ 109 µM) | MIC (Escherichia coli [20]): 45 µg/mL (≈ 109 µM); MBC (Staphylococcus aureus [21]): 210 µg/mL (≈ 509 µM); MIC (Staphylococcus aureus [22]): 40 µg/mL (≈ 97 µM); MIC (Aspergillus flavus [23]): 55 µg/mL (≈ 133 µM); zone of inhibition at 100 µg/mL (Aspergillus flavus [24]): 10 mm; MIC (Bacillus cereus [25]): 50 µg/mL (≈ 121 µM) |
| CCOC(=O)c1c(-c2ccccc2)nn(-c2ccccc2)c1COc1ccc(C=O)cc1OC | 12 | 230 (≈ 504 µM) | 8 | 4 | 60 (≈ 131 µM) | 10 | 2 | 205 (≈ 449 µM) | 70 (≈ 153 µM) | 40 (≈ 87.6 µM) | 3 | 210 (≈ 460 µM) | 8 | 250 (≈ 548 µM) | 200 (≈ 438 µM) | 8 | 8 | 6 | 4 | 45 (≈ 98.6 µM) | MIC (Escherichia coli [20]): 40 µg/mL (≈ 87.6 µM); MBC (Staphylococcus aureus [21]): 240 µg/mL (≈ 526 µM); MIC (Staphylococcus aureus [22]): 45 µg/mL (≈ 98.6 µM); MIC (Aspergillus flavus [23]): 40 µg/mL (≈ 87.6 µM); zone of inhibition at 100 µg/mL (Aspergillus flavus [24]): 9 mm; MIC (Bacillus cereus [25]): 45 µg/mL (≈ 98.6 µM) |
